Data: patent US7772241B2, “Variolin derivatives and their use as antitumor agents” (Pharma Mar S.A., priority 2001, dated 2010)

How the values were obtained:
[1] = test system: A-549; experiment: Inhibition of cells growth by colorimetric (SRB) assay, A-549; settings: for GI50 / CC50: Homo sapiens, A549, 48 h; for GI50: read-out: GI50 A-549, SRB assay, 48 hours exposure; for CC50: read-out: LC50 A-549, SRB assay, 48 hours exposure; for TGI A-549: SRB assay, 48 hours exposure
Description: (§1) The finality of these assays is to interrupt the growth of a “in vitro” tumor cell culture by means a continued exhibition of the cells to the sample to be testing.
(§2) This form of the assay employs 96 well cell culture microplates of 9 mm diameter (Faircloth, 1988; Mosmann, 1983). Most of the cell lines are obtained from American Type Culture Collection (ATCC) derived from different human cancer types.
(§3) Cells are maintained in RPMI 1640 10% FBS, supplemented with 0.1 g/l penicillin and 0.1 g/l streptomycin sulphate and then incubated at 37° C., 5% CO2 and 98% humidity. For the experiments, cells were harvested from subconfluent cultures using trypsin and resuspended in fresh medium before plating.
(§4) Cells are seeded in 96 well microtiter plates, at 5×10^3 cells per well in aliquots of 195 μl medium, and they are allowed to attach to the plate surface by growing in drug free medium for 18 hours. Afterward, samples are added in aliquots of 5 μl in a ranging from 10 to 10^−8 μg/ml, dissolved in DMSO/EtOH/PBS (0.5:0.5:99). After 48 hours exposure, the antitumor effect are measured by the SRB methodology: cells are fixed by adding 50 μl of cold 50% (wt/vol) trichloroacetic acid (TCA) and incubating for 60 minutes at 4° C. Plates are washed with deionized water and dried. One hundred μl of SRB solution (0.4% wt/vol in 1% acetic acid) is added to each microtiter well and incubated for 10 minutes at room temperature. Unbound SRB is removed by washing with 1% acetic acid. Plates are air dried and bound stain is solubilized with Tris buffer. Optical densities are read on a automated spectrophotometric plate reader at a single wavelength of 490 nm.
(§5) The values for mean +/−SD of data from triplicate wells are calculated. Some parameters for cellular responses can be calculated: GI=growth inhibition, TGI=total growth inhibition (cytostatic effect) and LC=cell killing (cytotoxic effect).

[2] = test system: IGROV-1; experiment: Inhibition of cells growth by colorimetric (SRB) assay, IGROV-1; settings: for GI50 / CC50: Homo sapiens, IGROV-1, 48 h; for GI50: read-out: GI50 IGROV, SRB assay, 48 hours exposure; for CC50: read-out: LC50 IGROV, SRB assay, 48 hours exposure; for TGI IGROV: SRB assay, 48 hours exposure
Description: as §1, §2, §3, §4, §5

[3] = test system: PANC-1; experiment: Inhibition of cells growth by colorimetric (SRB) assay, PANC-1; settings: for GI50 / CC50: Homo sapiens, PANC-1, 48 h; for GI50: read-out: GI50 PANC-1, SRB assay, 48 hours exposure; for CC50: read-out: LC50 PANC-1, SRB assay, 48 hours exposure; for TGI PANC-1: SRB assay, 48 hours exposure
Description: as §1, §2, §3, §4, §5

[4] = test system: LoVo; experiment: Inhibition of cells growth by colorimetric (SRB) assay, LoVo; settings: for GI50 / CC50: Homo sapiens, LoVo, 48 h; for GI50: read-out: GI50 LOVO, SRB assay, 48 hours exposure; for CC50: read-out: LC50 LOVO, SRB assay, 48 hours exposure; for TGI LOVO: SRB assay, 48 hours exposure
Description: as §1, §2, §3, §4, §5

[5] = test system: LoVo-Dox; experiment: Inhibition of cells growth by colorimetric (SRB) assay, LoVo-Dox; settings: for GI50 / CC50: Homo sapiens, 48 h; for GI50: read-out: GI50 LOVO-DOX, SRB assay, 48 hours exposure; for CC50: read-out: LC50 LOVO-DOX, SRB assay, 48 hours exposure; for TGI LOVO-DOX: SRB assay, 48 hours exposure
Description: as §1, §2, §3, §4, §5

[6] = test system: SK-BR-3; experiment: Inhibition of cells growth by colorimetric (SRB) assay, SK-BR-3
Description: as §1, §2, §3, §4, §5

[7] = test system: SK-OV-3; experiment: Inhibition of cells growth by colorimetric (SRB) assay, SK-OV-3; settings: for GI50 / CC50: Homo sapiens, SK-OV-3, 48 h; for GI50: read-out: GI50 SKOV-3, SRB assay, 48 hours exposure; for CC50: read-out: LC50 SKOV-3, SRB assay, 48 hours exposure; for TGI SKOV-3: SRB assay, 48 hours exposure
Description: as §1, §2, §3, §4, §5

[8] = test system: SK-MEL-28; experiment: Inhibition of cells growth by colorimetric (SRB) assay, SK-MEL-28; settings: for GI50 / CC50: Homo sapiens, SK-MEL-28, 48 h; for GI50: read-out: GI50 MEL-28, SRB assay, 48 hours exposure; for CC50: read-out: LC50 MEL-28, SRB assay, 48 hours exposure; for TGI MEL-28: SRB assay, 48 hours exposure
Description: as §1, §2, §3, §4, §5

[9] = test system: HT-29; experiment: Inhibition of cells growth by colorimetric (SRB) assay, HT-29; settings: for GI50 / CC50: Homo sapiens, HT-29, 48 h; for GI50: read-out: GI50 HT-29, SRB assay, 48 hours exposure; for TGI HT-29: SRB assay, 48 hours exposure; for CC50: read-out: LC50 HT-29, SRB assay, 48 hours exposure
Description: as §1, §2, §3, §4, §5

[10] = test system: DU-145; experiment: Inhibition of cells growth by colorimetric (SRB) assay, DU-145; settings: for GI50 / CC50: Homo sapiens, DU-145, 48 h; for GI50: read-out: GI50 DU-145, SRB assay, 48 hours exposure; for CC50: read-out: LC50 DU-145, SRB assay, 48 hours exposure; for TGI DU-145: SRB assay, 48 hours exposure
Description: as §1, §2, §3, §4, §5

[11] = test system: IGROV-ET; experiment: Inhibition of cells growth by colorimetric (SRB) assay, IGROV-ET; settings: for GI50 / CC50: Homo sapiens, 48 h; for GI50: read-out: GI50 IGROV-ET, SRB assay, 48 hours exposure; for CC50: read-out: LC50 IGROV-ET, SRB assay, 48 hours exposure; for TGI IGROV-ET: SRB assay, 48 hours exposure
Description: as §1, §2, §3, §4, §5

[12] = test system: K-562; experiment: Inhibition of cells growth by colorimetric (SRB) assay, K-562; settings: for GI50 / CC50: Homo sapiens, K562, 48 h; for GI50: read-out: GI50 K-562, SRB assay, 48 hours exposure; for CC50: read-out: LC50 K-562, SRB assay, 48 hours exposure; for TGI K-562: SRB assay, 48 hours exposure
Description: as §1, §2, §3, §4, §5

[13] = test system: LNCaP; experiment: Inhibition of cells growth by colorimetric (SRB) assay, LNCaP; settings: for GI50 / CC50: Homo sapiens, LNCaP, 48 h; for GI50: read-out: GI50 LN-caP, SRB assay, 48 hours exposure; for CC50: read-out: LC50 LN-caP, SRB assay, 48 hours exposure; for TGI LN-caP: SRB assay, 48 hours exposure
Description: as §1, §2, §3, §4, §5

Row | SMILES | GI50 [1] | CC50 [1] | TGI A-549 [1] | GI50 [2] | CC50 [2] | TGI IGROV [2] | GI50 [3] | CC50 [3] | TGI PANC-1 [3] | GI50 [4] | CC50 [4] | TGI LOVO [4] | GI50 [5] | CC50 [5] | TGI LOVO-DOX [5] | GI50 [7] | CC50 [7] | TGI SKOV-3 [7] | GI50 [8] | CC50 [8] | other results
1 | Nc1nccc2c(-c3ccnc(Oc4ccccc4)n3)c3cccnc3n12 [Compound 78] | 0.737 µM | 8.01 µM | 1.68E−06 | 0.621 µM | 4.74 µM | 1.41E−06 | 1.34 µM | 28.2 µM | 1.08E−05 | 0.553 µM | 5.05 µM | 1.44E−06 | 0.151 µM | 18.2 µM | 1.86E−06 | 0.784 µM | 28.2 µM | 1.87E−06 | 0.717 µM | 7.05 µM | GI50 ([6]; Homo sapiens, SK-BR-3, 48 h, read-out: GI50 SK-BR-3, SRB assay, 48 hours exposure): 0.528 µM; CC50 ([6]; Homo sapiens, SK-BR-3, 48 h, read-out: LC50 SK-BR-3, SRB assay, 48 hours exposure): 2.49 µM; TGI SK-BR-3 ([6]; SRB assay, 48 hours exposure): 1.15E−06; TGI MEL-28 [8]: 1.78E−06; GI50 [9]: 1.34 µM; TGI HT-29 [9]: 2.82E−05; GI50 [10]: 0.77 µM; CC50 [10]: 28.2 µM; TGI DU-145 [10]: 1.87E−06; GI50 [11]: 1.08 µM; CC50 [11]: 14.3 µM; TGI IGROV-ET [11]: 2.47E−06; GI50 [12]: 5.5 µM; CC50 [12]: 28.2 µM; TGI K-562 [12]: 2.30E−05
2 | Nc1nccc2c(-c3ccncn3)c3c(OCc4ccccc4)ccnc3n12 [Compound 98] | 15.3 µM | 27.1 µM | 2.71E−05 | 8.96 µM | 26.8 µM | 1.55E−05 | 5.62 µM | 19 µM | 1.03E−05 | 5.02 µM | 27.1 µM | 1.51E−05 | 5.92 µM | 27.1 µM | 1.42E−05 | 10.6 µM | 27.1 µM | 2.19E−05 | 7.52 µM | 21.2 µM | GI50 [13]: 1.85 µM; CC50 [13]: 23.9 µM; TGI LN-caP [13]: 6.49E−06; TGI MEL-28 [8]: 1.26E−05; GI50 [9]: 15.6 µM; CC50 [9]: 27.1 µM; TGI HT-29 [9]: 2.71E−05; GI50 [10]: 5.94 µM; CC50 [10]: 27.1 µM; TGI DU-145 [10]: 1.41E−05; GI50 [11]: 7.22 µM; CC50 [11]: 20.1 µM; TGI IGROV-ET [11]: 1.21E−05; GI50 [12]: 7.82 µM; CC50 [12]: 25.8 µM; TGI K-562 [12]: 1.42E−05
3 | Nc1nccc2c(-c3ccnc(O)n3)c3c(O)ccnc3n12 [Compound 106] | 18.2 µM | 24.5 µM | 2.45E−05 | 6.69 µM | 24.1 µM | 1.27E−05 | 6.44 µM | 24.5 µM | 1.71E−05 | 24.5 µM | 24.5 µM | 2.45E−05 | 8.18 µM | 24.5 µM | 2.45E−05 | 5.73 µM | 24.5 µM | 1.51E−05 | 8.87 µM | 24.5 µM | GI50 [13]: 6.42 µM; CC50 [13]: 24.5 µM; TGI LN-caP [13]: 1.64E−05; TGI MEL-28 [8]: 2.45E−05; GI50 [9]: 24.5 µM; CC50 [9]: 24.5 µM; TGI HT-29 [9]: 2.45E−05; GI50 [10]: 16.2 µM; CC50 [10]: 24.5 µM; TGI DU-145 [10]: 2.45E−05; GI50 [11]: 4.97 µM; CC50 [11]: 24.4 µM; TGI IGROV-ET [11]: 1.10E−05; GI50 [12]: 10.6 µM; CC50 [12]: 24.5 µM; TGI K-562 [12]: 2.45E−05
4 | CSc1nccc(-c2c3c(Cl)ccnc3n3c(N)nccc23)n1 [Compound 107] | 4.52 µM | 29.2 µM | 2.70E−05 | 2.95 µM | 23.7 µM | 8.34E−06 | 4.99 µM | 29.2 µM | 2.92E−05 | 0.173 µM | 29.2 µM | 3.79E−06 | 0.127 µM | 23 µM | 5.98E−07 | 0.195 µM | 29.2 µM | 3.35E−06 | 0.0248 µM | 29.2 µM | GI50 [13]: 3.38 µM; CC50 [13]: 25.3 µM; TGI LN-caP [13]: 9.25E−06; TGI MEL-28 [8]: 5.19E−06; GI50 [9]: 1.11 µM; CC50 [9]: 29.2 µM; TGI HT-29 [9]: 2.92E−05; GI50 [10]: 0.653 µM; CC50 [10]: 29.2 µM; TGI DU-145 [10]: 1.44E−05; GI50 [11]: 1.57 µM; CC50 [11]: 29.2 µM; TGI IGROV-ET [11]: 1.44E−05; GI50 [12]: 2.18 µM; CC50 [12]: 29.2 µM; TGI K-562 [12]: 9.19E−06
5 | Nc1nccc(-c2c3c(Cl)ccnc3n3c(N)nccc23)n1 [Compound 113] | 4.3 µM | 21.4 µM | 9.59E−06 | 2.94 µM | 24.1 µM | 8.53E−06 | 1.11 µM | 32.1 µM | 2.76E−05 | 1.26 µM | 32.1 µM | 7.83E−06 | 2.35 µM | 32.1 µM | 1.18E−05 | 1.37 µM | 32.1 µM | 5.39E−06 | 2.12 µM | 17.6 µM | GI50 [13]: 1.57 µM; CC50 [13]: 15.6 µM; TGI LN-caP [13]: 2.39E−06; TGI MEL-28 [8]: 6.29E−06; GI50 [9]: 4.72 µM; CC50 [9]: 32.1 µM; TGI HT-29 [9]: 3.21E−05; GI50 [10]: 1.51 µM; CC50 [10]: 32.1 µM; TGI DU-145 [10]: 6.26E−06; GI50 [11]: 1.3 µM; CC50 [11]: 32.1 µM; TGI IGROV-ET [11]: 6.00E−06; GI50 [12]: 6.16 µM; CC50 [12]: 32.1 µM; TGI K-562 [12]: 2.00E−05
